Source: ChEMBL document CHEMBL1129086, “Design of a novel cognitive enhancer (8S, 10aS)-8-carbamoyl-1,2,3,6,7,8,9,10a-octahydro-5H,10H-pyrrolo[1,2-a][1,4]diazocin-5,10-dione” (1996)
Active and inactive are the calls of the source. The calls are words filed in the database; no cut-off is given here. Where a SMILES comes first, the peptide text is derived from it. Bridges are numbered along the chain shown (N, C = ends). [ ]: non-standard residue; d: D form. pGlu = O=C1CC[C@@H](C(=O)O)N1

Tests used:
Mus musculus [1] = organism: Mus musculus; assay: Compound was tested for sedative action in mice by neuropharmacological test; No effect; format: functional, organism-based
Mus musculus [2] = organism: Mus musculus; assay: Compound was tested for psychomotor activation on CNS in mice by neuropharmacological test; No effect; format: functional, organism-based; conditions: Central nervous system
Mus musculus [3] = organism: Mus musculus; assay: Compound was tested for motor impairment in mice by neuropharmacological test; No effect; format: functional, organism-based
Mus musculus [4] = organism: Mus musculus; assay: Compound was tested for myorelaxant action in mice by neuropharmacological test; No effect; format: functional, organism-based
Rattus norvegicus [5] = assay: Antiamnesic potency was discovered in the passive avoidance test in rats at a dose 0.1 mg/kg (p<0.05); Amnesia reversed; format: functional, organism-based; parameters: dose 0.1 mg/kg
Rattus norvegicus [6] = assay: Compound was tested for amnesia response against scopolamine induced rats by passive avoidance test at a dose 1 mg/kg; format: functional
Rattus norvegicus [7] = assay: Antiamnesic potency was discovered in the passive avoidance test in rats at a dose 1.0 mg/kg (p<0.05); Amnesia reversed; format: functional, organism-based; parameters: dose 1 mg/kg

SMILES	Activity (Mus musculus [1])	Activity (Mus musculus [2])	Activity (Mus musculus [3])	Activity (Mus musculus [4])	Activity (Rattus norvegicus [5])	Response (Rattus norvegicus [6]) [%]	Activity (Rattus norvegicus [7])
CC(C)(C)OC(=O)N[C@@H](CCC(=O)O)C(=O)OCC(=O)NC(c1ccccc1)c1ccccc1	inactive	inactive	inactive	inactive	–	–	–
CC(C)(C)OC(=O)N[C@@H](CCC(=O)N1CCC[C@H]1C(=O)O)C(=O)OCC(=O)NC(c1ccccc1)c1ccccc1	inactive	inactive	inactive	inactive	–	–	–
CC(C)(C)OC(=O)N[C@@H](CCC(=O)O)C(=O)O	inactive	inactive	inactive	inactive	–	–	–
NC(=O)[C@@H]1CCC(=O)N2CCC[C@H]2C(=O)N1 (Pro-Glu-NH2; lactam N-2)	inactive	inactive	inactive	inactive	Amnesia reversed	83	Amnesia reversed
NC(=O)CC[C@H](NC(=O)[C@@H]1CCC(=O)N1)C(=O)N1CCC[C@H]1C(N)=O ([pGlu]-Gln-Pro-NH2)	inactive	inactive	inactive	inactive	–	–	–
NC(=O)[C@@H]1CCCN1C(=O)[C@H](Cc1c[nH]cn1)NC(=O)[C@@H]1CCC(=O)N1	inactive	inactive	inactive	inactive	–	–	–
O=C(COC(=O)[C@@H]1CCC(=O)N2CCC[C@H]2C(=O)N1)NC(c1ccccc1)c1ccccc1	inactive	inactive	inactive	inactive	–	–	–
